Source: patent publication US20110207764A1, “CYCLOPOLYSACCHARIDE COMPOSITIONS” (priority 2010, published 2011)

experiment: Concentration of active ingredient dissolved in 60% (w/w) aqueous SBECD after filtration, determined by HPLC; format: physicochemical; conditions: boiling water bath 1 hour, room temperature 24 hours, 0.2 micrometer filter
Protocol: (§1) 200 mg of coumarin were added to 4 g of 60% (w/w) aqueous SBECD, and the mixture was mixed at 34° C. for 48 hours, and then filtered through a 0.2 micrometer nylon filter to produce 44.3 mg/g coumarin solution, as determined by HPLC. 40 mg of cetylpiridinium chloride were added to the solution and mixed until completely dissolved, and the composition was filtered.
as §1, with “400” for “200”, “ibuprofen” for “coumarin”, “78.1” for “44.3”, “60” for “40”, “triethanoloamine” for “cetylpiridinium chloride”
as §1, with “2” for “200”, “paclitaxel” for “coumarin”, “0.4” for “44.3”, “heptakis(6-guanidino-6-deoxy)-beta-cyclodextrin” for “cetylpiridinium chloride”
200 mg of diindolylmethane were added to 4 g of 60% (w/w) aqueous SBECD, and the mixture was heated in boiling water bath for 1 hour, then kept at room temperature for 24 hours. The mixture was then filtered through a 0.2 micrometer nylon filter to produce 40.3 mg/g diindolylmethane solution, as determined by HPLC. 24 mg of octakis(6-guanidino-6-deoxy)-gamma-cyclodextrin were added to the solution and mixed until completely dissolved, and the composition was filtered.
10 mg of Semaxanib (3-((3,5-dimethyl-1H-pyrrol-2-yl)methylene)indolin-2-one) were added to 4 g of 60% (w/w) aqueous SBECD, and the mixture was heated in boiling water bath for 1 hour, then kept at room temperature for 24 hours. The mixture was then filtered through a 0.2 micrometer nylon filter to produce 1.3 mg/g semaxanib solution, as determined by HPLC. 80 mg of PI2080 (polyethyleneimine 2000 conjugated with PEG 8000) were added and mixed until completely dissolved, and the composition was filtered.
40 mg of xanthone (9H-xanthen-9-one) were added to 4 g of 60% (w/w) aqueous SBECD, and the mixture was heated in boiling water bath for 1 hour, then kept at room temperature for 24 hours. The mixture was filtered through a 0.2 micrometer nylon filter to produce 8.2 mg/g xanthone solution, as determined by HPLC. 120 mg of low molecular weight protamine were added and mixed until completely dissolved, and the composition was filtered.
100 mg of carvedilol were added to 4 g of 60% (w/w) aqueous SBECD, and the mixture was heated in boiling water bath for 1 hour, then kept at room temperature for 24 hours. The mixture was filtered through a 0.2 micrometer nylon filter to produce 22.6 mg/g carvedilol solution, as determined by HPLC. 120 mg of hexakis(6-amino-6-deoxy)-alpha-cyclodextrin were dissolved in 2 mL water, and the two solutions mixed until completely homogenous. The product solution was freeze-dried to form an amorphous solid.
10 mg of talidomid were added to 4 g of 60% (w/w) aqueous SBECD, and the mixture was mixed at 34° C. for 48 hours. The mixture was filtered through a 0.2 micrometer nylon filter to produce 1.7 mg/g talidomid solution, as determined by HPLC. 120 mg of heptakis(6-amino-6-deoxy)-beta-cyclodextrin were added and mixed until completely dissolved, and the composition was filtered.
2 mg of SN-38 (7-Ethyl-10-hydroxy-camptothecin) were added to 4 g of 60% (w/w) aqueous SBECD, and the mixture was heated in boiling water bath for 1 hour, then kept at room temperature for 24 hours. The mixture was filtered through a 0.2 micrometer nylon filter to produce 0.39 mg/g SN-38 solution, as determined by HPLC. A solution of 60 mg of heptakis(6-amino-6-deoxy)-beta-cyclodextrin in 2 mL water was added to the SN-38 solution, and mixed until the resulting solution was completely homogenous. The composition was filtered. […]

Question: Which “concentration of active ingredient in filtered solution” value (from here on “concentration of active ingredient”) does the source give for CCc1c2c(nc3ccc(O)cc13)-c1cc3c(c(=O)n1C2)COC(=O)[C@]3(O)CC [SN-38, 7-Ethyl-10-hydroxy-camptothecin] here?
Answer: The value was 0.39 mg/g.

Question: With COc1ccccc1OCCNCC(O)COc1cccc2[nH]c3ccccc3c12 (stereo not drawn) [carvedilol] as the molecule, how does the “concentration of active ingredient” value read?
Answer: The value was 22.6 mg/g.

Question: For CC(=O)[C@@]1(O)CC[C@H]2[C@@H]3C=C(C)C4=CC(=O)CC[C@]4(C)[C@H]3CC[C@@]21C [megesterol], which “concentration of active ingredient” value is on record?
Answer: Its value is 4.3 mg/g.

Question: For Cc1cc(C)c(C=C2C(=O)Nc3ccccc32)[nH]1 [semaxanib, 3-((3,5-dimethyl-1H-pyrrol-2-yl)methylene)indolin-2-one], which “concentration of active ingredient” value is on record?
Answer: The value was 1.3 mg/g.

Question: With O=c1c2ccccc2oc2ccccc12 [xanthone, 9H-xanthen-9-one] as the molecule, how does the “concentration of active ingredient” value read?
Answer: The value was 8.2 mg/g.

same assay, conditions: mixed at 34° C. for 48 hours, 0.2 micrometer filter

Question: With O=c1ccc2ccccc2o1 [coumarin] as the molecule, how does the “concentration of active ingredient” value read?
Answer: The value was 44.3 mg/g.

Question: With CC(C)Cc1ccc(C(C)C(=O)O)cc1 (stereo not drawn) [ibuprofen] as the molecule, how does the “concentration of active ingredient” value read?
Answer: The value was 78.1 mg/g.

Question: With CC(=O)O[C@H]1C(=O)[C@@]2(C)[C@H]([C@H](OC(=O)c3ccccc3)[C@]3(O)C[C@H](OC(=O)[C@H](O)[C@@H](NC(=O)c4ccccc4)c4ccccc4)C(C)=C1C3(C)C)[C@]1(OC(C)=O)CO[C@@H]1C[C@@H]2O [paclitaxel] as the molecule, how does the “concentration of active ingredient” value read?
Answer: Its value is 0.4 mg/g.

Question: With O=C1CCC(N2C(=O)c3ccccc3C2=O)C(=O)N1 (stereo not drawn) [talidomid] as the molecule, how does the “concentration of active ingredient” value read?
Answer: The value was 1.7 mg/g.
